Experimental data taken from paper PMC8748775, “The sphingosine 1-phosphate receptor 2/4 antagonist JTE-013 elicits off-target effects on sphingolipid metabolism” (Scientific Reports, 2022).

How the values were obtained:
S1P lyase = target: T1, S1P lyase (Homo sapiens, UniProt O95470); test: fluorogenic S1P lyase assay in overexpressing lysate, […] DOP; assay type: cell-based
T1 construct: gene SGPL1; FLAG-tagged human S1P lyase overexpressed in HEK293T cells (whole cell lysate)
T1 sequence (O95470 1-568): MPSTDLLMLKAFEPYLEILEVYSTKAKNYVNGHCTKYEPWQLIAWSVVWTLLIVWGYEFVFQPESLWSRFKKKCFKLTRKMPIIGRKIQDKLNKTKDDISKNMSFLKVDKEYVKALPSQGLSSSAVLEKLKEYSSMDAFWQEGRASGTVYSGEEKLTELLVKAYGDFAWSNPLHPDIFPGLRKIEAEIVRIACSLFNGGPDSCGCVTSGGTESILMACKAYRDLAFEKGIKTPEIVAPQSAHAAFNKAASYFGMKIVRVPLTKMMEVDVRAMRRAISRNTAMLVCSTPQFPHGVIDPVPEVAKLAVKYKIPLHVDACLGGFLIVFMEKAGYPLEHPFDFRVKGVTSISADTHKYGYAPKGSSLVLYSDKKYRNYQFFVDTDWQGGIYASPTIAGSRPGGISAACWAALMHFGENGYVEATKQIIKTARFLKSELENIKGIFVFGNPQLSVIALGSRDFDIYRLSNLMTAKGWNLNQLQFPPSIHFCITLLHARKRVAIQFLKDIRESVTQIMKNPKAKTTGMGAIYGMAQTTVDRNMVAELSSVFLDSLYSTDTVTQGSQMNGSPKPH

[1] = target: T2, sphingosine kinase 1 (SK1) (Homo sapiens, UniProt Q9NYA1); test: in vitro radiometric [γ-32P]ATP sphingosine kinase assay with purified enzyme; assay type: biochemical
T2 construct: gene SPHK1; purified recombinant human SK1
T2 sequence (Q9NYA1 whole entry): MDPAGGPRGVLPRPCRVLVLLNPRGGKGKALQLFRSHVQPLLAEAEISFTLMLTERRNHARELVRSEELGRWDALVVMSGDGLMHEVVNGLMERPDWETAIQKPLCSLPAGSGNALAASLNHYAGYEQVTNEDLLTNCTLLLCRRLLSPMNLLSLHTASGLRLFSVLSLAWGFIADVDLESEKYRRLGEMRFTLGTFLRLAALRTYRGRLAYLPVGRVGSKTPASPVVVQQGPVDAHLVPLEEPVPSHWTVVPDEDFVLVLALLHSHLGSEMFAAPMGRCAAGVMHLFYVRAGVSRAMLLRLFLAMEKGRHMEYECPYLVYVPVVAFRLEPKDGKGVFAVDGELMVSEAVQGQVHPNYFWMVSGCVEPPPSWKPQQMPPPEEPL

[2] = target: T3, dihydroceramide desaturase 1 (Des1) (Homo sapiens, UniProt O15121); test: HPLC NBD-C6-dhCer conversion; Ki from Des1-overexpressing HEK293T lysates, competitive inhibition confirmed with purified Des1-FLAG plus CYB5; assay type: biochemical
T3 construct: gene DEGS1; Des1-FLAG (C-terminal FLAG), expressed in HEK293T cells; with cytochrome B5 (CYB5)
T3 sequence (P00167 2-134 partner, one chain of several): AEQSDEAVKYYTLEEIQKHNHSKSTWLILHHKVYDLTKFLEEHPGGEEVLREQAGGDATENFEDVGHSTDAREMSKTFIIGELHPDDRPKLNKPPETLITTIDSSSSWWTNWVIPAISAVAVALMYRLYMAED

[3] = target: T4, sphingosine kinase 2 (SK2) (Homo sapiens, UniProt Q9NRA0); test: in vitro radiometric [γ-32P]ATP sphingosine kinase assay with purified enzyme; assay type: biochemical
T4 construct: gene SPHK2; purified recombinant human SK2
T4 sequence (Q9NRA0 1-654): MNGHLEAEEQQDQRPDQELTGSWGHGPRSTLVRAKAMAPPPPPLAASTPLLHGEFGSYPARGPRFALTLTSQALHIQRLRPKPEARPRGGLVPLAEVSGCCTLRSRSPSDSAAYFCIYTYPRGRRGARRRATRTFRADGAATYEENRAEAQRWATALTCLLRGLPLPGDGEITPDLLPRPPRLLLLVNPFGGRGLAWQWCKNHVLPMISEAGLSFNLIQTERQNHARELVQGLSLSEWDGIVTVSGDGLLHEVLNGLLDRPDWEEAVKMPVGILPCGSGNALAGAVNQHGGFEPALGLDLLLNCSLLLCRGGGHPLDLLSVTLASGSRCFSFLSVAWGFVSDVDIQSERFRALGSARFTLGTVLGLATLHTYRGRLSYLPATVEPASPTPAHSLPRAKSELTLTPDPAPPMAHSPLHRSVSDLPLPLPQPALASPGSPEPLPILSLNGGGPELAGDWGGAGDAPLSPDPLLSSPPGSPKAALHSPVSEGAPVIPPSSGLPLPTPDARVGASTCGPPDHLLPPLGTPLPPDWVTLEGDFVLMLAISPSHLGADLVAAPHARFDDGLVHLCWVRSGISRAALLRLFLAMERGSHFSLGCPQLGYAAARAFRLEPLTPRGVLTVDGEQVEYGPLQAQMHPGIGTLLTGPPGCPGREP

[4] = substrate: CCCCCCCCCCCCCCC[C@@H](O)[C@H](CO)NC(=O)CCCCCNc1ccc([N+](=O)[O-])c2nonc12; test: HPLC conversion to NBD-C6-Cer; KM from Des1-overexpressing lysates, turnover also with purified Des1-FLAG; assay type: biochemical, Homo sapiens; conditions: NADPH; iron ((NH4)2Fe(SO4)[…] in purified assay)

For `Cc1ncc(CO)c(C)c1O` [DOP, 4-deoxypyridoxine], which “fluorogenic S1P lyase assay in overexpressing lysate, 1.25 mM DOP” value (S1P lyase) is on record?
The value was “known S1P lyase inhibitors 4-deoxypyridoxine and FTY720 both showed inhibition of S1P lyase activity”.

`Cc1nn(C)c2nc(NNC(=O)Nc3c(Cl)cncc3Cl)cc(C(C)C)c12` [JTE-013] was tested. Which IC50 [1] did it give?
Its IC50 is 25.1 ± 2.7 µM.

And the Ki [2]?
Its Ki is 9.2 ± 0.8 µM.

What about the IC50 [3] of the same molecule?
Its IC50 is 4.3 ± 0.5 µM.

B1: dihydroceramide desaturase 1 (Des1) (Homo sapiens) (protein)
chain: GSRVSREDFEWVYTDQPHADRRREILAKYPEIKSLMKPDPNLIWIIIMMVLTQLGAFYIVKDLDWKWVIFGAYAFGSCINHSMTLAIHEIAHNAAFGNCKAMWNRWFGMFANLPIGIPYSISFKRYHMDHHRYLGADGVDVDIPTDFEGWFFCTAFRKFIWVILQPLFYAFRPLFINPKPITYLEVINTVAQVTFDILIYYFLGIKSLVYMLAASLLGLGLHPISGHFIAEHYMFLKGHETYSYYGPLNLLTFNVGYHNEHHDFPNIPGKSLPLVRKIAAEYYDNLPHYNSWIKVLYDFVMDDTISPYSRMKRHQKGEMVLE
notes: Des1-FLAG (C-terminal FLAG), expressed in HEK293T cells; with cytochrome B5 (CYB5)
How did the Km [4] turn out when B1 was run?
The Km was 0.3 µM.
